Results taken from patent US8278480B2, “Salts, aqueous liquid compositions containing salts of S-(+)-abscisic acid and methods of their preparation” (Valent BioSciences Corporation, priority 2008, dated 2012).

Tests used:
[1] = system: tomato leaf transpiration; assay: Tomato leaf transpiration inhibition after foliar spray (LI-1600 porometer); assay type: in vivo, Tomato (variety: Rutgers); conditions: for Transpiration rate (% of control), 1 day after treatment: day 1; for Transpiration rate (% of control), 2 days after treatment: day 2; for Transpiration rate (% of control), 3 days after treatment: day 3; for Transpiration rate (% of control), 4 days after treatment: day 4; for Transpiration rate (% of control), 7 days after treatment: day 7; for ABA dose to achieve 50% inhibition of transpiration: from linear regression of 3-day average transpiration rate on log dose
Method: (§1) Preparation of plant specimens for use in the treatment studies of the EXAMPLES that follow was carried out as follows. Tomato (variety: Rutgers) seeds were sown in an 18-cell flat filled with Promix PGX (available from Premier Horticulture Inc., Quakertown Pa.) and grown for 3 weeks to allow for germination and initial growth. Plants were then transplanted into pots (18 cm in diameter and 18 cm in height), filled with Promix BX (available from Premier Horticulture Inc., Quakertown Pa.), and grown for one or two more weeks before treatment, depending on temperature and available light. Plants received daily irrigation and weekly fertilizer (1 g/L all purpose fertilizer 20-20-20, available from The Scotts Company, Marysville, Ohio).
(§2) All treatment solutions were made up with distilled water. The (S)-(+)-abscisic acid (95% active ingredient) is available from Lomon BioTechnology Co., Ltd. (Shichuan, China). The prior art aqueous solution composition of the ammonium salt of (S)-(+)-abscisic acid as prepared in Example 11 above was used as a positive treatment control for most of the studies.
(§3) All experiments were conducted using a randomized complete block experimental design. Solutions of (S)-(+)-abscisic acid and blank treatments (plain water) were applied by spray to the aerial parts of the tomato plants at the rate of 24 mL per 6 plants. Plants were then placed in a transparent chamber with humidity controlled within the range of 40 to 60% relative humidity. Leaf transpiration rates were measured at 1, 2, 3, 4 and 7 days after treatment. Measurements were conducted using a LI-1600 Steady State Porometer (LI-Cor, Lincoln, Nebr.). Each day the transpiration rate of the plants of each treatment group was normalized to a percentage of the transpiration rate of untreated plants (plants sprayed with water only) in order to control for day-to-day variability in plant status caused by changes of environmental conditions such as light intensity and temperature. Data for each plant was also averaged over a 3-day period to balance the short term and long term effect of (S)-(+)-abscisic acid on tomato leaf transpiration as well as to reduce experimental variability.
The regression equation of each (S)-(+)-abscisic acid salt as well as abscisic acid concentrations for 50% inhibition of transpiration were calculated. The relative potency of two ABA salts is the reciprocal of the ratio of (S)-(+)-abscisic acid concentration required for 50% transpiration inhibition for each composition.

[2] = system: tomato shoot fresh weight; assay: Tomato shoot fresh weight 7 days after treatment (growth suppression); assay type: in vivo, Tomato (variety: Rutgers); conditions: foliar spray
Method: as §1, §2, §3
In this experiment, the fresh weights of the aerial parts of the tomato plants were also measured at the end of the experiment, 7 days after treatments were applied, in order to assess the relative growth suppressing activity of the compositions.

[3] = 462 ppm ChI, no (S)-(+)-abscisic acid
[4] = (S)-(+)-abscisic acid dose 0.3 mg, foliar spray
[5] = (S)-(+)-abscisic acid dose 1 mg, foliar spray
[6] = (S)-(+)-abscisic acid dose 3 mg, foliar spray
[7] = (S)-(+)-abscisic acid dose 10 mg, foliar spray
[8] = foliar spray, 250 ppm (S)-(+)-abscisic acid (1 mg), additives as in label
[9] = reciprocal of ratio of doses for 50% transpiration inhibition
[10] = 332 ppm KI, no (S)-(+)-abscisic acid

| Compound | Transpiration rate (% of control), Average of 3 days after treatment [1, 4] | Transpiration rate (% of control), Average of 3 days after treatment [1, 5] | Transpiration rate (% of control), Average of 3 days after treatment [1, 6] | Transpiration rate (% of control), Average of 3 days after treatment [1, 7] | Transpiration rate (% of control), 7-Day Average [1, 8] | Transpiration rate (% of control), 1 day after treatment [1, 8] | Transpiration rate (% of control), 2 days after treatment [1, 8] | Transpiration rate (% of control), 3 days after treatment [1, 8] | Transpiration rate (% of control), 4 days after treatment [1, 8] | Transpiration rate (% of control), 7 days after treatment [1, 8] | ABA dose to achieve 50% inhibition of transpiration [1] | further results |
| --- | --- | --- | --- | --- | --- | --- | --- | --- | --- | --- | --- | --- |
| C[N+](C)(C)CCO.[I-] [ChI, choline iodide, reference compound] |  |  |  |  |  |  |  |  |  |  |  | Transpiration rate (% of control), 7-Day Average [1, 3]: 100.6 % of control; Transpiration rate (% of control), 1 day after treatment [1, 3]: 96.4 % of control; Transpiration rate (% of control), 2 days after treatment [1, 3]: 104.2 % of control; Transpiration rate (% of control), 3 days after treatment [1, 3]: 104.5 % of control; Transpiration rate (% of control), 4 days after treatment [1, 3]: 98.9 % of control; Transpiration rate (% of control), 7 days after treatment [1, 3]: 98.9 % of control |
| CC1=CC(=O)CC(C)(C)[C@@]1(O)/C=C/C(C)=C\C(=O)[O-].C[N+](C)(C)C [Example 3, Tetramethylammonium Salt of (S)-(+)-Abscisic Acid] | 79 % of control | 65 % of control | 52 % of control | 38 % of control | 73.7 % of control | 59.1 % of control | 63.6 % of control | 71.9 % of control | 78.6 % of control | 95.4 % of control | 3.59 mg | Relative potency compared to the trimethylamine salt composition of Comparative Example 13 [1, 9]: 4.6 times |
| CC1=CC(=O)CC(C)(C)[C@@]1(O)/C=C/C(C)=C\C(=O)[O-].[K+] [Example 12, Potassium Salt of (S)-(+)-Abscisic Acid, reference compound] | 76 % of control | 66 % of control | 55 % of control | 44 % of control | 77.0 % of control | 55.0 % of control | 64.9 % of control | 76.9 % of control | 90.9 % of control | 97.3 % of control | 5.28 mg | Relative potency compared to the ammonium salt composition of Comparative Example 11 [1, 9]: 0.98 times |
| CC1=CC(=O)CC(C)(C)[C@@]1(O)/C=C/C(C)=C\C(=O)O.CN(C)C [Example 13, Trimethylamine Salt of (S)-(+)-Abscisic Acid, reference compound] | 84 % of control | 74 % of control | 65 % of control | 54 % of control | 81.2 % of control | 65.5 % of control | 73.6 % of control | 81.7 % of control | 88.2 % of control | 97.0 % of control | 16.59 mg |  |
| CC1=CC(=O)CC(C)(C)[C@@]1(O)/C=C/C(C)=C\C(=O)O.CCCCN(CCCC)CCCC [Example 14, Tributylamine Salt of (S)-(+)-Abscisic Acid, reference compound] | 82 % of control | 70 % of control | 53 % of control | 40 % of control | 79.5 % of control | 59.7 % of control | 71.3 % of control | 78.8 % of control | 87.4 % of control | 100.3 % of control | 4.34 mg | Fresh weight (g) 7 days after treatment ([2]; 75 ppm (0.3 mg) (S)-(+)-abscisic acid): 15.7 g; Fresh weight (g) 7 days after treatment ([2]; 250 ppm (1 mg) (S)-(+)-abscisic acid, additives as in label): 15.3 g; Fresh weight (g) 7 days after treatment ([2]; 750 ppm (3 mg) (S)-(+)-abscisic acid): 15.0 g; Fresh weight (g) 7 days after treatment ([2]; 2500 ppm (10 mg) (S)-(+)-abscisic acid): 13.9 g |
| [I-].[K+] [KI, potassium iodide, reference compound] |  |  |  |  |  |  |  |  |  |  |  | Transpiration rate (% of control), 4 Day Average ([1]; 332 ppm KI, no (S)-(+)-abscisic acid, 4-day average): 100.7 % of control; Transpiration rate (% of control), 1 day after treatment [1, 10]: 100.2 % of control; Transpiration rate (% of control), 2 days after treatment [1, 10]: 100.5 % of control; Transpiration rate (% of control), 3 days after treatment [1, 10]: 99.6 % of control; Transpiration rate (% of control), 4 days after treatment [1, 10]: 102.6 % of control |
